From patent US4804676A, “Enkephalinase B inhibitors, their preparation, and pharmaceutical compositions containing the same” (Sankyo Company Limited, priority 1984, dated 1989)
Like-named read-outs stand apart in the source and are kept apart here.

What was measured:
[1] = target: T1, enkephalinase B (Rattus norvegicus, UniProt O55096); assay: Enzymatic properties of purified enkephalinase B (Michaelis constant); type: biochemical; settings: purified rat brain enkephalinase B
T1 construct: from tissue; host or cells: rat brain membrane, Triton X-100 solubilized, purified by DEAE chromatography, chromatofocusing and gel filtration
T1 sequence (O55096 2-738 limits assumed): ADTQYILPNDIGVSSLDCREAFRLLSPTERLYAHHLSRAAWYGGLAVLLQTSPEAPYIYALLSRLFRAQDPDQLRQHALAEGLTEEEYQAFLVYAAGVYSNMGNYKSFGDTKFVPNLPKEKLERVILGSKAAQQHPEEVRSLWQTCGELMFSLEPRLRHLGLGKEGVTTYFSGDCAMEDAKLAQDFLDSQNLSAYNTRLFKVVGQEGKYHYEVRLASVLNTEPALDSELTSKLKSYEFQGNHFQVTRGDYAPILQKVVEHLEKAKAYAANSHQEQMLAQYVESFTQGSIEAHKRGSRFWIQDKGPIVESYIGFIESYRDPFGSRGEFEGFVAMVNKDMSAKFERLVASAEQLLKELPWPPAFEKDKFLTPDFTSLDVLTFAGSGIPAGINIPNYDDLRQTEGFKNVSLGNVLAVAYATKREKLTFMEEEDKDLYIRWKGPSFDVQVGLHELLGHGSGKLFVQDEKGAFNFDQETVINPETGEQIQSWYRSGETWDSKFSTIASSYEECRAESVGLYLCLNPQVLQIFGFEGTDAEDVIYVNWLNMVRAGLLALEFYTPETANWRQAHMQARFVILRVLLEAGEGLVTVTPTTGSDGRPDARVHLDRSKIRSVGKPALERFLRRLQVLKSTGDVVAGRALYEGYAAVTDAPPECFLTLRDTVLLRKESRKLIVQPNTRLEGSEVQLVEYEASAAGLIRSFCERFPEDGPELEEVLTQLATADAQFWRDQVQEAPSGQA
Experimental: (§1) 100 g of rat brain was homogenized using 1 liter of 50 mM tris-HCl buffer (pH 7.7) and the homogenate was centrifuged at 50,000 G for 15 minutes to give a precipitate. The precipitate was washed three times and centrifuged as before. It was then suspended in 500 ml of the same buffer containing 1% of Triton X-100, and kept at 37° C. for 1 hour. The suspension was centrifuged at 100,000 G for 1 hour to give a crude enzyme solution of enkephalinase B as supernatant.
(§2) The thus obtained crude enzyme solution was dialyzed against a 5 mM sodium phosphate buffer (pH 7.0) and was applied for adsorption to a column (3.0×30 cm) of DEAE-Sephacel (produced by Pharmacia Co. Ltd.) previously equilibrated with the same buffer containing 1% Triton X-100 (solution A). The column was washed with solution A and eluted with 2.5 liters of solution A and with 2.5 liters of solution A which contains 0.4M sodium chloride by the linear concentration gradient method.
(§3) The obtained fraction of enkephalinase B was dialyzed against solution A, and was applied for adsorption to a column (1.6×27 cm) of DEAE-Toyopearl 670S (produced by Toyo Soda Kogyo K.K.) previously equilibrated with solution A. Elution was carried out using 500 ml of solution A and 500 ml of a solution of 0.4M sodium chloride dissolved in solution A by the linear concentration gradient method. […]

[2] = Solubility; type: physicochemical
[3] = target: T1, enkephalinase B; assay: Inhibition of enkephalinase B, Ki by the method of Dixon (Tyr-Gly released from methionine-enkephalin, HPLC); type: biochemical; settings: for Ki: enkephalinase B, pH 6.5, 37° C., methionine-enkephalin substrate, method of Dixon, read-out: Ki value (inhibition constant)
Experimental: The presence of the desired substances, Propioxatins A and B, can be assessed quantitavely during the processes of cultivation and purification by measuring the enkephalinase B inhibition activity. To do this, methionine-enkephalin is incubated with an enkephalinase B solution containing the Propioxatin, and then the amount of the resulting product tyrosyl-glycine (Tyr-Gly) is estimated by chromatography (e.g. thin layer chromatography or high pressure liquid chromatography). A blank test without Propioxatin is also carried out, and the enkephalinase B inhibition constant is determined. The enkephalinase B solution used for this technique can be prepared from rat brain by generally-known enzyme purification methods. Since enkephalinase B exists in rat brain as a membrane-bound enzyme, it is released from the membrane and made soluble using a detergent such as Triton X-100. The solubilized enzyme is then subjected to a combination of purification processes such as ion-exchange chromatography in which various kinds of ion-exchangers having a diethylaminoethyl (DEAE) group can be used, gel filtration using a molecular sieve, or isoelectric fractionation to obtain the purified enkephalinase B. These methods are described in greater detail hereinafter in the Examples.
as §1, §2, §3

[4] = tested on: rat; assay: Analgesic action by the Randall-Selitto method after administration into the cerebral ventricle; type: in vivo
Experimental: Propioxatin A (10 μg) and enkephalin (1 mg) were administered simultaneously into the cereberal ventricle of a rat and the analgesic action thereof was examined by the Randall-Selitto method (Randall, L. D. and Selitto, J. J.; Arch. Int. Pharmacodyn. 111, 409-419 (1957)). The same quantities of Propioxatinn A and enkephalin were also administered separately, as controls.

[5] = target: T1, enkephalinase B; assay: Enkephalinase B inhibition IC50, method of Parker and Waud, substrate 0.1 mM methionine-enkephalin; type: biochemical
Experimental: as §1
The thus obtained crude enzyme solution was dialyzed against a 5 mM sodium phosphate buffer (pH 7.0) and was applied for adsorption to a column (3.0×30 cm) of DEAE-Sephacel (produced by Pharmacia Co. Ltd.) previously equilibrated with the same buffer containing 1% Triton X-100 (solution A). The column was washed with solution A and eluted with 2.5 liters of solution A and with 2.5 liters of solution A which contains 0.4M sodium chloride by the linear concentration gradient method. […]
A mixture of 40 μl of 0.1M sodium phosphate buffer (pH 6.5), 10 μl of a Propioxatin A solution and 40 μl of an enkephalinase B solution was incubated at 37° C. for 5 minutes, then 10 μl of a 1 mM or 10 mM methionine-enkephalin solution were added, followed by stirring at 37° C. for 20 minutes. The reaction was then stopped by adding 10 μl of 2N hydrochloric acid to the reaction mixture, and the amount of tyrosyl-glycine (Tyr-Gly) produced (Vi) with respect to 20 μl of the reaction mixture was determined by high pressure liquid chromatography. Similarly, the amount of tyrosyl-glycine produced (V) in a blank test, in which no Propioxatin was contained and only a buffer was used, was measured. […]
By way of comparison, the enkephalinase B inhibition activity was also measured for the compound N-[3-(N-hydroxycarbamoyl)-2-benzylpropanoyl]alanine, which is a compound within formula (I) of the above-mentioned French patent specification No. 2 518 088 (Japanese laid-open application No. 58-150547). […]

[6] = enkephalin 1 mg, Propioxatin A 10 μg

SMILES	Solubility in ethanol and acetone [2]	Solubility in ethyl acetate, chloroform, benzene and ether [2]	Solubility in water, methanol and dimethyl sulfoxide [2]	type of inhibition of enkephalinase B [3]	Ki [3] [nM]	further results
CSCC[C@H](NC(=O)[C@H](Cc1ccccc1)NC(=O)CNC(=O)CNC(=O)[C@@H](N)Cc1ccc(O)cc1)C(=O)O [Methionine-enkephaline, Tyr-Gly-Gly-Phe-Met]	–	–	–	–	–	Km value relative to Methionine-enkephaline (Michaelis constant) [1]: 53 µM
CC(C)C[C@H](CC(=O)NO)C(=O)N1CCC[C@H]1C(=O)N[C@H](C(=O)O)C(C)C [Propioxatin B]	slightly soluble	insoluble	Soluble	competitive inhibitor	110	–
CC(C)C[C@H](NC(=O)[C@H](Cc1ccccc1)NC(=O)CNC(=O)CNC(=O)[C@@H](N)Cc1ccc(O)cc1)C(=O)O [enkephalin]	–	–	–	–	–	time for analgesic effect to fall to 50% of its peak value [4, 6]: about 30 minutes; time of peak value of analgesic effect after injection [4, 6]: approximately 10 minutes
C[C@H](NC(=O)C(CC(=O)NO)Cc1ccccc1)C(=O)O (stereo partly drawn) [Compound of FR 2 518 088, N-[3-(N-hydroxycarbamoyl)-2-benzylpropanoyl]alanine, reference compound]	–	–	–	–	–	IC50 [5]: 44200 nM
CCC[C@H](CC(=O)NO)C(=O)N1CCC[C@H]1C(=O)N[C@H](C(=O)O)C(C)C [Propioxatin A]	slightly soluble	insoluble	Soluble	competitive inhibitor	13	analgesic effect ([4]; Propioxatin A 10 μg injected alone): No appreciable analgesic effect; prolonging the analgesic action of enkephalin ([4]; Propioxatin A 10 μg with enkephalin 1 mg): significantly effective; IC50 ([5]; enkephalinase B, substrate 0.1 mM methionine-enkephalin, read-out: IC50 (converted)): 29.9 nM; more active than the prior art compound ([5]; ratio to the compound of FR 2 518 088, enkephalinase B IC50): approximately 1,000
